Assay results taken from US20110274656A1, “PHARMACEUTICAL COMPOSITION FOR PREVENTING OR TREATING HEPATITIS C, COMPRISING THE ROOTS EXTRACT OF PLATYCODON GRANDIFLORUM OR PLATYCODON GRANDIFLORUM SAPONIN COMPONENTS” (B&C Biopharm Co., Ltd., priority 2009, published 2011).

test system: HCV subgenomic RNA replicon in Huh-7 human hepatoma cell line; assay: HCV RNA replication inhibitory activity in HCV replicon (subgenomic RNA replicon) cell line; type: cell-based, HCV-1b Hepatitis C virus; settings: Huh-7 cells harboring HCV-1b subgenomic replicon, 72 hours, RT-PCR
Protocol: To screen a compound that is capable of inhibiting HCV replication, each compound was added to Huh-7 human hepatoma cell line harboring HCV RNA replicon, followed by culture. Then, expression level of HCV RNA was quantified and its inhibitory activity was measured. HCV replicon used in this invention was derived from HCV-1b Hepatitis C virus gene that was bicistronic replicon composed of HCV IRES, neomycin resistant gene, EMCV (encephalomyocarditis virus) IRES. HCV non-structural proteins were composed of the sequences comprising NS3-NS5B and HCV 3′end. An expression vector harboring HCV replicon proceeded to in vitro transcription, and the obtained HCV replicon was transfected into the Huh-7 cells by electroporation. To select only those cells having HCV replicon, Huh-7 cells were cultured with medium containing the antibiotic G418 (500 μg/ml). The selected cells were cultured with DMEM (Dulbecco's modified Eagles media) containing 10% FBS, non-essential amino acids and 500 μg/ml of G418.
Huh-7 cells harboring HCV subgenomic RNA replicon were cultured overnight in 6 well plate (3×10^5 cells/well), at 37° C. and 5% CO2 with DMEM containing 10% FBS, non-essential amino acids and 500 μg/ml of G418. Medium of each well was replaced with DMEM containing 2% FBS, non-essential amino acids and 500 μg/ml of G418. Test compound was dissolved in DMSO, which was added to each well at different concentrations, followed by culture in a 5% CO2 incubator at 37° C. for 72 hours. Equal amount of DMSO (negative control) and Interferon-α (positive control) were added as controls. Upon completion of the culture, medium of each well was eliminated, followed by washing with 1 ml of PBS. 250 μl/well of trypsin/EDTA was added thereto and cells were separated from the plate and washed with PBS again to eliminate medium. Total RNA was isolated from the cells by using SV total RNA isolation system (Promega corporation), followed by quantification using GeneQuant pro (Amersham bioscience). EC50 against HCV replicon of each compound was investigated by RT-PCR and the result was compared with those of controls. RT-PCR was performed with the primer targeting HCV 1b NS5B region and by AccessQuick™ RT-PCR system (Promega corporation). To obtain more accurate EC50 values, quantitative real-time PCR was performed along with RT-PCR. cDNA was obtained from the isolated RNA by using Reverse transcription system (Promega corporation), followed by quantitative real-time PCR using iQ SYBR Green Supermix (Bio-rad). At the same time, one-step real time RT-PCR was performed using Taqman probe to investigate the inhibitory activity of each compound. At this time, the primer targeting HCV 5′-UTR was used and GAPDH (Glyceraldehyde-3-phosphate dehydrogenase) gene was used as a reference gene for correction. Real time RT-PCR was performed by using iCycler iQ5 system (Bio-rad). The EC50 value was calculated by iCycler iQ5 optical system software (Bio-rad) program to determine the inhibitory activity. HCV replicon inhibitory activity of saponin components of Platycodon grandiflorum, the roots extract of Platycodon grandiflorum and the composition containing the same of the present invention and sapogenin and prosapogenin is shown in Table 7 and Table 8.

Compound	Inhibitory Activity EC50 (HCV RNA replication inhibitory activity of saponin components)
platycogenic acid A lactone [Compound 16]	0.4 µg/mL
C[C@@H]1O[C@@H](O[C@H]2[C@H](OC(=O)[C@]34CCC(C)(C)C[C@H]3C3=CC[C@@H]5[C@@]6(C)C[C@H](O)[C@H](O[C@@H]7O[C@H](CO[C@@H]8O[C@H](CO[C@@H]9O[C@H](CO)[C@@H](O)[C@H](O)[C@H]9O)[C@@H](O)[C@H](O)[C@H]8O)[C@@H](O)[C@H](O)[C@H]7O)C(CO)(CO)[C@@H]6CC[C@@]5(C)[C@]3(C)C[C@H]4O)OC[C@H](O)[C@@H]2O)[C@H](O)[C@H](O)[C@H]1O[C@@H]1OC[C@@H](O)[C@H](O)[C@H]1O [Compound 1, deapioplatycoside E]	>10 µg/mL
C[C@@H]1O[C@@H](O[C@H]2[C@H](OC(=O)[C@]34CCC(C)(C)C[C@H]3C3=CC[C@@H]5[C@@]6(C)C[C@H](O)[C@H](O[C@@H]7O[C@H](CO)[C@@H](O)[C@H](O[C@@H]8O[C@H](CO)[C@@H](O)[C@H](O)[C@H]8O)[C@H]7O)C(CO)(CO)[C@@H]6CC[C@@]5(C)[C@]3(C)C[C@H]4O)OC[C@H](O)[C@@H]2O)[C@H](O)[C@H](O)[C@H]1O[C@@H]1OC[C@@H](O)[C@H](O)[C@H]1O [Compound 7, deapioplatycodin D2]	0.2 µg/mL
CC1(C)CCC2(C(=O)O)C(O)CC3(C)C(=CCC4C5(C)CC(O)C(O)C(C)(CO)C5CCC43C)C2C1 (stereo not shown) [Compound 15, polygalacic acid]	2 µg/mL
C[C@@H]1O[C@@H](O[C@H]2[C@H](OC(=O)[C@]34CCC(C)(C)C[C@H]3C3=CC[C@@H]5[C@@]6(C)C[C@H](O)[C@H](O[C@@H]7O[C@H](CO)[C@@H](O)[C@H](O)[C@H]7O)C(CO)(CO)[C@@H]6CC[C@@]5(C)[C@]3(C)C[C@H]4O)OC[C@H](O)[C@@H]2O)[C@H](O)[C@H](O)[C@H]1O[C@@H]1OC[C@@H](O)[C@H](O)[C@H]1O [Compound 9, deapioplatycodin D]	0.2 µg/mL
C[C@@H]1O[C@@H](O[C@H]2[C@H](OC(=O)[C@]34CCC(C)(C)C[C@H]3C3=CC[C@@H]5[C@@]6(C)C[C@H](O)[C@H](O[C@@H]7O[C@H](CO)[C@@H](O)[C@H](O)[C@H]7O)[C@](CO)(C(=O)O)[C@@H]6CC[C@@]5(C)[C@]3(C)C[C@H]4O)OC[C@H](O)[C@@H]2O)[C@H](O)[C@H](O)[C@H]1O[C@@H]1OC[C@@H](O)[C@H](O[C@@H]2OC[C@](O)(CO)[C@H]2O)[C@H]1O [Compound 6, platyconic acid A]	0.2 µg/mL
C[C@@H]1O[C@@H](O[C@H]2[C@H](OC(=O)[C@]34CCC(C)(C)C[C@H]3C3=CC[C@@H]5[C@@]6(C)C[C@H](O)[C@H](O[C@@H]7O[C@H](CO)[C@@H](O)[C@H](O[C@@H]8O[C@H](CO)[C@@H](O)[C@H](O)[C@H]8O)[C@H]7O)C(CO)(CO)[C@@H]6CC[C@@]5(C)[C@]3(C)C[C@H]4O)OC[C@H](O)[C@@H]2O)[C@H](O)[C@H](O)[C@H]1O[C@@H]1OC[C@@H](O)[C@H](O[C@@H]2OC[C@](O)(CO)[C@H]2O)[C@H]1O [Compound 8, platycodin D2]	0.1 µg/mL
C[C@@H]1O[C@@H](O[C@H]2[C@H](OC(=O)[C@]34CCC(C)(C)C[C@H]3C3=CC[C@@H]5[C@@]6(C)C[C@H](O)[C@H](O[C@@H]7O[C@H](CO)[C@@H](O)[C@H](O[C@@H]8O[C@H](CO)[C@@H](O)[C@H](O)[C@H]8O)[C@H]7O)[C@@](C)(CO)[C@@H]6CC[C@@]5(C)[C@]3(C)C[C@H]4O)OC[C@H](O)[C@@H]2O)[C@H](O)[C@H](O)[C@H]1O[C@@H]1OC[C@@H](O)[C@H](O[C@@H]2OC[C@](O)(CO)[C@H]2O)[C@H]1O [Compound 4, polygalacin D2]	>10 µg/mL
platyconic acid A methyl ester [Compound 13]	5 µg/mL
COC(=O)C12CCC(C)(C)CC1C1=CCC3C4(C)CC(O)C(OC5OC(CO)C(O)C(O)C5O)C(CO)(CO)C4CCC3(C)C1(C)CC2O (stereo not shown) [Compound 18, platycodigenin 3-O-glucopyranoside 28-methyl ester]	>10 µg/mL
2″-O-acetyl-polygalacin D2 [Compound 12]	1 µg/mL
platycogenic acid A lactone 3-O-glucopyranoside [Compound 17]	2 µg/mL
COC(=O)C12CCC(C)(C)CC1C1=CCC3C4(C)CC(O)C(OC5OC(CO)C(O)C(OC6OC(CO)C(O)C(O)C6O)C5O)C(CO)(CO)C4CCC3(C)C1(C)CC2O (stereo not shown) [Compound 19, platycodigenin 3-O-laminaribioside 28-methyl ester]	>10 µg/mL
2″-O-acetyl-deapiopolygalacin D2 [Compound 11]	>10 µg/mL
CC1(C)CC[C@]2(C(=O)O)[C@H](O)C[C@]3(C)C(=CC[C@@H]4[C@@]5(C)C[C@H](O)[C@H](O)C(CO)(CO)[C@@H]5CC[C@]43C)[C@@H]2C1 [Compound 14, platycodigenin]	>10 µg/mL
C[C@@H]1O[C@@H](O[C@H]2[C@H](OC(=O)[C@]34CCC(C)(C)C[C@H]3C3=CC[C@@H]5[C@@]6(C)C[C@H](O)[C@H](O[C@@H]7O[C@H](CO)[C@@H](O)[C@H](O)[C@H]7O)[C@@](C)(CO)[C@@H]6CC[C@@]5(C)[C@]3(C)C[C@H]4O)OC[C@H](O)[C@@H]2O)[C@H](O)[C@H](O)[C@H]1O[C@@H]1OC[C@@H](O)[C@H](O[C@@H]2OC[C@](O)(CO)[C@H]2O)[C@H]1O [Compound 5, polygalacin D]	0.8 µg/mL
C[C@@H]1O[C@@H](O[C@H]2[C@H](OC(=O)[C@]34CCC(C)(C)C[C@H]3C3=CC[C@@H]5[C@@]6(C)C[C@H](O)[C@H](O[C@@H]7O[C@H](CO[C@@H]8O[C@H](CO[C@@H]9O[C@H](CO)[C@@H](O)[C@H](O)[C@H]9O)[C@@H](O)[C@H](O)[C@H]8O)[C@@H](O)[C@H](O)[C@H]7O)C(CO)(CO)[C@@H]6CC[C@@]5(C)[C@]3(C)C[C@H]4O)OC[C@H](O)[C@@H]2O)[C@H](O)[C@H](O)[C@H]1O[C@@H]1OC[C@@H](O)[C@H](O[C@@H]2OC[C@](O)(CO)[C@H]2O)[C@H]1O [Compound 2, platycoside E]	0.7 µg/mL
C[C@@H]1O[C@@H](O[C@H]2[C@H](OC(=O)[C@]34CCC(C)(C)C[C@H]3C3=CC[C@@H]5[C@@]6(C)C[C@H](O)[C@H](O[C@@H]7O[C@H](CO)[C@@H](O)[C@H](O)[C@H]7O)C(CO)(CO)[C@@H]6CC[C@@]5(C)[C@]3(C)C[C@H]4O)OC[C@H](O)[C@@H]2O)[C@H](O)[C@H](O)[C@H]1O[C@@H]1OC[C@@H](O)[C@H](O[C@@H]2OC[C@](O)(CO)[C@H]2O)[C@H]1O [Compound 10, platycodin D]	0.1 µg/mL
CC1OC(OC2C(OC(=O)C34CCC(C)(C)CC3C3=CCC5C6(C)CC(O)C(OC7OC(COC8OC(CO)C(O)C(O)C8O)C(O)C(O)C7O)C(CO)(CO)C6CCC5(C)C3(C)CC4O)OCC(O)C2O)C(O)C(O)C1OC1OCC(O)C(OC2OCC(O)(CO)C2O)C1O (stereo not shown) [Compound 3, platycodin D3]	0.2 µg/mL
